Test results as given in PubChem BioAssay (NCI).
Several values for one entry are separate records, joined by “and”; a condition that tells them apart may be missing. Identical values can stand only once.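 Each compound was tested at five concentrations against cells in 96-well plates for 48 hours. At the GI50, growth is halved. TGI: total growth inhibition.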 Where a SMILES comes first, the peptide text is derived from it. [ ]: non-standard residue; d: D form. Ac5c = NC1(C(=O)O)CCCC1

tested on: OVCAR-8 ovarian; experiment: NCI anticancer screen, dose series, 48 h

Q: Which GI50 does the source give for `COc1cc2c(cc1OCCCOc1cc3c(cc1OC)C(=O)N1C[C@H](F)C[C@H]1C=N3)N=C[C@@H]1C[C@@H](F)CN1C2=O` here?
A: 6.3 µM

Q: And the TGI?
A: 18.5 µM

Q: `CO[C@@H]1/C=C\C=C(/C)C(=O)NC2=CC(=O)C(NCCN(C)C)=C(C[C@@H](C)C[C@@H](OC)[C@@H](O)[C@H](C)/C=C(\C)[C@H]1OC(N)=O)C2=O` was tested. Which GI50 did it give?
A: 0.0216 µM

Q: And the TGI?
A: 2.95 µM and 6.36 µM

Q: For `COc1ccc(CN(C)c2ccc(CO)c(Cl)c2)cc1`, which GI50 is on record?
A: 19.6 µM

Q: And the TGI?
A: > 100 µM

Q: Which results are given for `O=C1Nc2ccc(C(=O)c3ccco3)cc2/C1=C/c1cc(Cl)c(O)c(Cl)c1`?
A: GI50: 6.27 µM; TGI: > 25 µM

Q: Which results are given for `O=c1ccn(C2OC(CO)C(O)C2F)c(=O)[nH]1` (stereo unspecified)?
A: GI50: > 1000 µM; TGI: > 1000 µM

Q: `CC(=O)[O-].CC(=O)[O-].[Pt+2].c1cscn1.c1cscn1` was tested. Which GI50 did it give?
A: 31.3 µM

Q: What about the TGI of the same compound?
A: 71.7 µM

Q: `Cn1c([N+](=O)[O-])cnc1/C=C1\Oc2ccccc2C1=O` was tested. Which GI50 did it give?
A: 0.186 µM

Q: And the TGI?
A: 0.677 µM

Q: How did the GI50 turn out when `COc1cc(OC)cc(C2CC(=O)Nc3c2c(C)nn3-c2nc3ccccc3[nH]2)c1` (stereo unspecified) was run?
A: 3.97 µM

Q: What about the TGI of the same compound?
A: > 100 µM

Q: For `Cc1c[nH]c2c(O)cc3c(c12)[C@H](CCl)CN3C(=O)c1cc2cc(NC(=O)Nc3ccc4[nH]c(C(=O)N5C[C@@H](CCl)c6c5cc(O)c5[nH]cc(C)c65)cc4c3)ccc2[nH]1`, which TGI is on record?
A: 16.3 µM and 2e-06 µg/mL and 0.000888 µg/mL

Q: Which results are given for `CCN(CC)CCCC(C)Nc1c2ccc(Cl)cc2nc2ccc(OC)cc12` (stereo unspecified)?
A: GI50: 1.23 µM; TGI: 5.64 µM and 5.73 µM

Q: Which TGI does the source give for `COc1ccc([N+](=O)[O-])c2c(NCCCN(C)C)c3ccccc3nc12` here?
A: 4.9 µM

Q: What does the source list for `CCN1CCN(C(=O)[C@]23CC[C@@H](C)[C@H](C)[C@@H]2C2=CC[C@@H]4[C@@]5(C)C/C(=C/c6ccncc6)C(=O)C(C)(C)[C@@H]5CC[C@@]4(C)[C@]2(C)CC3)CC1`?
A: GI50: 2.26 µM; TGI: 5.75 µM

Q: `Cc1cc(C)c([O-])c(CN(C)CCN(C)Cc2cc(C)cc(C)c2[O-])c1.O=C([O-])c1cccc(C(=O)[O-])n1.[Ti+4]` was tested. Which GI50 did it give?
A: 2.8 µM

Q: What about the TGI of the same compound?
A: > 100 µM

Q: How did the TGI turn out when `NC1(C(=O)NC2(C(=O)O)CCCC2)CCCC1` (H-[Ac5c]-[Ac5c]-OH) was run?
A: > 100 µM

Q: What does the source list for `CCOC(=O)C(Cc1c[nH]c2ccc(N)cc12)(NC(C)=O)C(=O)OCC`?
A: GI50: > 1000 µM; TGI: > 1000 µM

Q: With `CN1CCN(CCCN)CC1` as the compound, how does the TGI read?
A: > 100 µM

Q: With `CC(=O)Nc1ccc(C(=O)NN2C(=O)C(Cl)C2c2ccc(Cl)cc2)cc1` (stereo unspecified) as the compound, how does the TGI read?
A: > 100 µM

Q: How did the TGI turn out when `Nc1ccc(N(S(=O)(=O)c2ccccc2)S(=O)(=O)c2ccccc2)c(Cl)c1` was run?
A: > 100 µM

Q: What does the source list for `CC(O)c1cccc(NCc2c3ccccc3c(=O)n3c2oc2ccccc23)c1` (stereo unspecified)?
A: GI50: 8.04 µM; TGI: 36.2 µM

Q: Which results are given for `O=c1c2c(nc3n1CCS3)[nH]c1ccccc12`?
A: GI50: > 100 µM; TGI: > 100 µM

Q: How did the TGI turn out when `CSc1nc(C)c2c(n1)SCC2` was run?
A: > 10 µM

Q: What does the source list for `CC1=C2[C@@H](CC1)[C@]1(C)O[C@@](C3CCCCC3)(C[C@H]1OC(=O)CO)[C@H]2OC(=O)/C=C/c1ccccc1`?
A: GI50: 0.11 µM; TGI: 12.9 µM

Q: For `O=C(O[C@H]1CN[C@H](C#Cc2cc3ncnc(Nc4ccc5c(ccn5Cc5cc(F)ccc5F)c4)c3s2)C1)N1CCOCC1`, which GI50 is on record?
A: 4.11 µM

Q: What about the TGI of the same compound?
A: 15.4 µM

Q: Which GI50 does the source give for `O=c1c(Oc2ccc(F)cc2F)cc2cnc(NC3CCOCC3)nc2n1C1CCS(=O)(=O)CC1` here?
A: > 25 µM

Q: What about the TGI of the same compound?
A: > 25 µM

Q: `C=CCC(N[C@H](CO)c1ccccc1)c1ccc2ccccc2n1` (stereo partly specified) was tested. Which GI50 did it give?
A: > 100 µM

Q: And the TGI?
A: > 100 µM

tested on: MDA-MB-435; experiment: NCI anticancer screen, dose series, 48 h

Q: With `COc1cc(/C=C/C(=O)CC(=O)/C=C/c2cc(OC)c(OC)c(OC)c2)cc(OC)c1OC` as the compound, how does the GI50 read?
A: 2.52 µM

Q: And the TGI?
A: 7.23 µM

Q: With `COc1cc2c(cc1OCCCOc1cc3c(cc1OC)C(=O)N1C[C@H](F)C[C@H]1C=N3)N=C[C@@H]1C[C@@H](F)CN1C2=O` as the compound, how does the GI50 read?
A: 14.3 µM

Q: And the TGI?
A: 27.4 µM

Q: What does the source list for `CO[C@@H]1/C=C\C=C(/C)C(=O)NC2=CC(=O)C(NCCN(C)C)=C(C[C@@H](C)C[C@@H](OC)[C@@H](O)[C@H](C)/C=C(\C)[C@H]1OC(N)=O)C2=O`?
A: GI50: < 0.0124 µM; TGI: 3.1 µM and 1.32 µM

Q: For `COc1ccc(CN(C)c2ccc(CO)c(Cl)c2)cc1`, which GI50 is on record?
A: 24.2 µM

Q: What about the TGI of the same compound?
A: 95.4 µM

Q: Which results are given for `O=C1Nc2ccc(C(=O)c3ccco3)cc2/C1=C/c1cc(Cl)c(O)c(Cl)c1`?
A: GI50: 4.11 µM; TGI: 24.2 µM

Q: For `O=c1ccn(C2OC(CO)C(O)C2F)c(=O)[nH]1` (stereo unspecified), which GI50 is on record?
A: > 1000 µM

Q: What about the TGI of the same compound?
A: > 1000 µM

Q: How did the GI50 turn out when `CC(=O)[O-].CC(=O)[O-].[Pt+2].c1cscn1.c1cscn1` was run?
A: > 100 µM

Q: And the TGI?
A: > 100 µM

Q: With `Cn1c([N+](=O)[O-])cnc1/C=C1\Oc2ccccc2C1=O` as the compound, how does the GI50 read?
A: 0.175 µM

Q: What about the TGI of the same compound?
A: 0.395 µM

Q: Which results are given for `COc1cc(OC)cc(C2CC(=O)Nc3c2c(C)nn3-c2nc3ccccc3[nH]2)c1` (stereo unspecified)?
A: GI50: 2.76 µM; TGI: 7.88 µM

Q: How did the GI50 turn out when `Cc1c[nH]c2c(O)cc3c(c12)[C@H](CCl)CN3C(=O)c1cc2cc(NC(=O)Nc3ccc4[nH]c(C(=O)N5C[C@@H](CCl)c6c5cc(O)c5[nH]cc(C)c65)cc4c3)ccc2[nH]1` was run?
A: 0.0146 µM

Q: `CCN(CC)CCCC(C)Nc1c2ccc(Cl)cc2nc2ccc(OC)cc12` (stereo unspecified) was tested. Which TGI did it give?
A: 3.08 µM and 2.79 µM

Q: For `COc1ccc([N+](=O)[O-])c2c(NCCCN(C)C)c3ccccc3nc12`, which TGI is on record?
A: 1.17 µM

Q: Which results are given for `CCN1CCN(C(=O)[C@]23CC[C@@H](C)[C@H](C)[C@@H]2C2=CC[C@@H]4[C@@]5(C)C/C(=C/c6ccncc6)C(=O)C(C)(C)[C@@H]5CC[C@@]4(C)[C@]2(C)CC3)CC1`?
A: GI50: 1.62 µM; TGI: 3.24 µM

Q: What does the source list for `Cc1cc(C)c([O-])c(CN(C)CCN(C)Cc2cc(C)cc(C)c2[O-])c1.O=C([O-])c1cccc(C(=O)[O-])n1.[Ti+4]`?
A: GI50: 2.89 µM; TGI: > 100 µM

Q: `NC1(C(=O)NC2(C(=O)O)CCCC2)CCCC1` (H-[Ac5c]-[Ac5c]-OH) was tested. Which TGI did it give?
A: > 100 µM

Q: With `CCOC(=O)C(Cc1c[nH]c2ccc(N)cc12)(NC(C)=O)C(=O)OCC` as the compound, how does the GI50 read?
A: > 1000 µM

Q: What about the TGI of the same compound?
A: > 1000 µM

Q: `CN1CCN(CCCN)CC1` was tested. Which TGI did it give?
A: > 100 µM

Q: For `CC(=O)Nc1ccc(C(=O)NN2C(=O)C(Cl)C2c2ccc(Cl)cc2)cc1` (stereo unspecified), which TGI is on record?
A: > 100 µM

Q: With `Nc1ccc(N(S(=O)(=O)c2ccccc2)S(=O)(=O)c2ccccc2)c(Cl)c1` as the compound, how does the TGI read?
A: > 100 µM

Q: `CC(O)c1cccc(NCc2c3ccccc3c(=O)n3c2oc2ccccc23)c1` (stereo unspecified) was tested. Which GI50 did it give?
A: 18.4 µM

Q: What about the TGI of the same compound?
A: > 100 µM

Q: Which results are given for `O=c1c2c(nc3n1CCS3)[nH]c1ccccc12`?
A: GI50: > 100 µM; TGI: > 100 µM

Q: `CSc1nc(C)c2c(n1)SCC2` was tested. Which TGI did it give?
A: > 10 µM

Q: What does the source list for `CC1=C2[C@@H](CC1)[C@]1(C)O[C@@](C3CCCCC3)(C[C@H]1OC(=O)CO)[C@H]2OC(=O)/C=C/c1ccccc1`?
A: GI50: 8.65 µM; TGI: 23.6 µM

Q: Which results are given for `O=C(O[C@H]1CN[C@H](C#Cc2cc3ncnc(Nc4ccc5c(ccn5Cc5cc(F)ccc5F)c4)c3s2)C1)N1CCOCC1`?
A: GI50: 5.13 µM; TGI: 18.2 µM

Q: What does the source list for `O=c1c(Oc2ccc(F)cc2F)cc2cnc(NC3CCOCC3)nc2n1C1CCS(=O)(=O)CC1`?
A: GI50: > 25 µM; TGI: > 25 µM

Q: Which GI50 does the source give for `C=CCC(N[C@H](CO)c1ccccc1)c1ccc2ccccc2n1` (stereo partly specified) here?
A: > 100 µM

Q: What about the TGI of the same compound?
A: > 100 µM

Q: What does the source list for `COC(=O)c1cc2c(cc1Cl)SC(N(N(C)C)S(=O)(=O)c1ccc(Br)s1)=NS2(=O)=O`?
A: GI50: 23.1 µM; TGI: 49.7 µM

tested on: KM12 colon; experiment: NCI anticancer screen, dose series, 48 h

Q: Which results are given for `COc1cc(/C=C/C(=O)CC(=O)/C=C/c2cc(OC)c(OC)c(OC)c2)cc(OC)c1OC`?
A: GI50: 4.58 µM; TGI: 63 µM

Q: `COc1cc2c(cc1OCCCOc1cc3c(cc1OC)C(=O)N1C[C@H](F)C[C@H]1C=N3)N=C[C@@H]1C[C@@H](F)CN1C2=O` was tested. Which GI50 did it give?
A: 12.7 µM

Q: And the TGI?
A: 26.7 µM

Q: How did the GI50 turn out when `CO[C@@H]1/C=C\C=C(/C)C(=O)NC2=CC(=O)C(NCCN(C)C)=C(C[C@@H](C)C[C@@H](OC)[C@@H](O)[C@H](C)/C=C(\C)[C@H]1OC(N)=O)C2=O` was run?
A: 0.0147 µM

Q: What about the TGI of the same compound?
A: 1.02 µM and 0.448 µM

Q: For `COc1ccc(CN(C)c2ccc(CO)c(Cl)c2)cc1`, which GI50 is on record?
A: 24.6 µM

Q: And the TGI?
A: > 92.8 µM

Q: Which results are given for `O=C1Nc2ccc(C(=O)c3ccco3)cc2/C1=C/c1cc(Cl)c(O)c(Cl)c1`?
A: GI50: 3.62 µM; TGI: > 17.7 µM

Q: Which results are given for `O=c1ccn(C2OC(CO)C(O)C2F)c(=O)[nH]1` (stereo unspecified)?
A: GI50: > 1000 µM; TGI: > 1000 µM

Q: How did the GI50 turn out when `CC(=O)[O-].CC(=O)[O-].[Pt+2].c1cscn1.c1cscn1` was run?
A: > 100 µM

Q: And the TGI?
A: > 100 µM

Q: Which results are given for `Cn1c([N+](=O)[O-])cnc1/C=C1\Oc2ccccc2C1=O`?
A: GI50: 0.412 µM; TGI: 2.46 µM

Q: Which GI50 does the source give for `COc1cc(OC)cc(C2CC(=O)Nc3c2c(C)nn3-c2nc3ccccc3[nH]2)c1` (stereo unspecified) here?
A: 2.79 µM

Q: What about the TGI of the same compound?
A: 7.68 µM

Q: With `Cc1c[nH]c2c(O)cc3c(c12)[C@H](CCl)CN3C(=O)c1cc2cc(NC(=O)Nc3ccc4[nH]c(C(=O)N5C[C@@H](CCl)c6c5cc(O)c5[nH]cc(C)c65)cc4c3)ccc2[nH]1` as the compound, how does the TGI read?
A: 15 nM and 28.1 µM and 3e-06 µg/mL

Q: What does the source list for `CCN(CC)CCCC(C)Nc1c2ccc(Cl)cc2nc2ccc(OC)cc12` (stereo unspecified)?
A: GI50: 2.39 µM; TGI: 7.83 µM and 5.14 µM

Q: Which TGI does the source give for `COc1ccc([N+](=O)[O-])c2c(NCCCN(C)C)c3ccccc3nc12` here?
A: 0.509 µM
